# Patent US10913744B2, “LRRK2 inhibitors and methods of making and using the same” (Dana-Farber Cancer Institute, Inc., priority 2015, dated 2021)
# Like-named read-outs stand apart in the source and are kept apart here.
# Columns and labels:
# EIF2AK3 = EIF2AK3 (Homo sapiens (Human), UniProt Q9NZJ5); assay: Dundee profiling
# TLK1 = TLK1 (Homo sapiens (Human), UniProt Q9UKI8); assay: Dundee profiling
# PKBb = PKBb (Homo sapiens (Human), UniProt P31751); assay: Dundee profiling
# ERK1 = ERK1 (Homo sapiens (Human), UniProt P27361); assay: Dundee profiling
# ERK2 = ERK2 (Homo sapiens (Human), UniProt P28482); assay: Dundee profiling
# CSNK1G2 = CSNK1G2 (Homo sapiens (Human), UniProt P78368); assay: KinomeScan; type: binding; conditions: 1 uM
# EGFR (L858R, T790M) = EGFR (L858R, T790M) (Homo sapiens (Human), UniProt P00533, L858R/T790M); assay: KinomeScan; type: binding; conditions: 1 uM
# BRSK2 = BRSK2 (Homo sapiens (Human), UniProt Q8IWQ3); assay: Dundee profiling
# MARK2 = MARK2 (Homo sapiens (Human), UniProt Q7KZI7); assay: Dundee profiling
# MST2 = MST2 (Homo sapiens (Human), UniProt Q13188); assay: Dundee profiling
# IGF-1R = IGF-1R (Homo sapiens (Human), UniProt P08069); assay: Dundee profiling
# EGFR (S752-I759del) = EGFR (S752-I759del) (Homo sapiens (Human), UniProt P00533, DEL752-759); assay: KinomeScan; type: binding; conditions: 1 uM
# Lck = Lck (Homo sapiens (Human), UniProt P06239); assay: Dundee profiling
# CHEK1 = CHEK1 (Homo sapiens (Human), UniProt O14757); assay: KinomeScan; type: binding; conditions: 1 uM
# EPH-B4 = EPH-B4 (Homo sapiens (Human), UniProt P54760); assay: Dundee profiling
# MAP4K3 = MAP4K3 (Homo sapiens (Human), UniProt Q8IVH8); assay: KinomeScan; type: binding; conditions: 1 uM
# PIM2 = PIM2 (Homo sapiens (Human), UniProt Q9P1W9); assay: Dundee profiling
# BRSK1 = BRSK1 (Homo sapiens (Human), UniProt Q8TDC3); assay: Dundee profiling
# MKK2 = MKK2 (Homo sapiens (Human), UniProt P36507); assay: Dundee profiling
# [1] = biological target: JAK1 (JH2domain-pseudokinase) (Homo sapiens (Human), UniProt P23458); assay: KinomeScan; type: binding; conditions: 1 uM
# PRAK = PRAK (Homo sapiens (Human), UniProt Q8IW41); assay: Dundee profiling
# CDK11 = CDK11 (Homo sapiens (Human), UniProt Q9BWU1); assay: KinomeScan; type: binding; conditions: 1 uM
# CSK = CSK (Homo sapiens (Human), UniProt P41240); assay: Dundee profiling
# GSK3b = GSK3b (Homo sapiens (Human), UniProt P49841); assay: Dundee profiling
# [2] = biological target: JAK2 (JH1domain-catalytic) (Homo sapiens (Human), UniProt O60674); assay: KinomeScan; type: binding; conditions: 1 uM
# PKD1 = PKD1 (Homo sapiens (Human), UniProt Q15139); assay: Dundee profiling
# PLK2 = PLK2 (Homo sapiens (Human), UniProt Q9NYY3); assay: KinomeScan; type: binding; conditions: 1 uM
# [3] = biological target: RSK4 (Kin.Dom.2-C-terminal) (Homo sapiens (Human), UniProt Q9UK32); assay: KinomeScan; type: binding; conditions: 1 uM
# EPHA5 = EPHA5 (Homo sapiens (Human), UniProt P54756); assay: KinomeScan; type: binding; conditions: 1 uM
# PFTK1 = PFTK1 (Homo sapiens (Human), UniProt O94921); assay: KinomeScan; type: binding; conditions: 1 uM
# NUAK1 = NUAK1 (Homo sapiens (Human), UniProt O60285); assay: Dundee profiling
# IRAK1 = IRAK1 (Homo sapiens (Human), UniProt P51617); assay: Dundee profiling
# EPH-B1 = EPH-B1 (Homo sapiens (Human), UniProt P54762); assay: Dundee profiling
# LOK = LOK (Homo sapiens (Human), UniProt O94804); assay: KinomeScan; type: binding; conditions: 1 uM
# PIP5K1C = PIP5K1C (Homo sapiens (Human), UniProt O60331); assay: KinomeScan; type: binding; conditions: 1 uM
# [4] = read-out: percent remaining enzymatic activity, I1, 1 μM
# [5] = read-out: percent remaining enzymatic activity, I10
# [6] = read-out: percent remaining enzymatic activity
# Sequence of PRAK (Q8IW41 whole entry, species assumed): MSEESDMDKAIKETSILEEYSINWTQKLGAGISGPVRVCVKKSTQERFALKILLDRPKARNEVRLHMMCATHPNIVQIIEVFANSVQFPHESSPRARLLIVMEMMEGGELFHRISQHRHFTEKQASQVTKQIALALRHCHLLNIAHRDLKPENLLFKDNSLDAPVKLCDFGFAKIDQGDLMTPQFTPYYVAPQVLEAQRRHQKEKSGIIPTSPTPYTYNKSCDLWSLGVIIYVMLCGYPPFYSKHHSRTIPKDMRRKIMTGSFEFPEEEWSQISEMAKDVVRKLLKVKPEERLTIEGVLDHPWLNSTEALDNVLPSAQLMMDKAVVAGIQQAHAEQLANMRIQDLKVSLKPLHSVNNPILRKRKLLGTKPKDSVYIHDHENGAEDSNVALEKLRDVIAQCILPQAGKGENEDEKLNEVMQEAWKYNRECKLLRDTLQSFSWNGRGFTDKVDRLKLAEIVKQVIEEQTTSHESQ
# Sequence of TLK1 (Q9UKI8 whole entry, looked up, species assumed): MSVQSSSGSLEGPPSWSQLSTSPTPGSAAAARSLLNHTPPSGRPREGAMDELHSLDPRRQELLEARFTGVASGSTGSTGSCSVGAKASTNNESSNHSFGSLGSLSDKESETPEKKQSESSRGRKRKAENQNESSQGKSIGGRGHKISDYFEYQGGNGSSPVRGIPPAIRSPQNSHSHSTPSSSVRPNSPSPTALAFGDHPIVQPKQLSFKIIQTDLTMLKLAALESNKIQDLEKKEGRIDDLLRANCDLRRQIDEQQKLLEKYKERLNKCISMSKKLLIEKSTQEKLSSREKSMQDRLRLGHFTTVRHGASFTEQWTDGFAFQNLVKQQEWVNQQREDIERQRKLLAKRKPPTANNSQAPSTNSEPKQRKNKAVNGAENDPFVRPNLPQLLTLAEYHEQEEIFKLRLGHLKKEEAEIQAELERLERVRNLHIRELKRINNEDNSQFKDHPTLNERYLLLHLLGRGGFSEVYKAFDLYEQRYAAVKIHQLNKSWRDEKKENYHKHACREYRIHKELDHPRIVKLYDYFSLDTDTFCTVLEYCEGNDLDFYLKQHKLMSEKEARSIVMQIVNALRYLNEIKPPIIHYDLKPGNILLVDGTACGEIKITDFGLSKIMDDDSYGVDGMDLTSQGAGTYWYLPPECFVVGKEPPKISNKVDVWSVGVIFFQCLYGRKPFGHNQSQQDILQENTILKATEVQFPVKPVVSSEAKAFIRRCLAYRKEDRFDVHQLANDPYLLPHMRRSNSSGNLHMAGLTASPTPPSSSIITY
# Sequence of NUAK1 (O60285 whole entry, species assumed): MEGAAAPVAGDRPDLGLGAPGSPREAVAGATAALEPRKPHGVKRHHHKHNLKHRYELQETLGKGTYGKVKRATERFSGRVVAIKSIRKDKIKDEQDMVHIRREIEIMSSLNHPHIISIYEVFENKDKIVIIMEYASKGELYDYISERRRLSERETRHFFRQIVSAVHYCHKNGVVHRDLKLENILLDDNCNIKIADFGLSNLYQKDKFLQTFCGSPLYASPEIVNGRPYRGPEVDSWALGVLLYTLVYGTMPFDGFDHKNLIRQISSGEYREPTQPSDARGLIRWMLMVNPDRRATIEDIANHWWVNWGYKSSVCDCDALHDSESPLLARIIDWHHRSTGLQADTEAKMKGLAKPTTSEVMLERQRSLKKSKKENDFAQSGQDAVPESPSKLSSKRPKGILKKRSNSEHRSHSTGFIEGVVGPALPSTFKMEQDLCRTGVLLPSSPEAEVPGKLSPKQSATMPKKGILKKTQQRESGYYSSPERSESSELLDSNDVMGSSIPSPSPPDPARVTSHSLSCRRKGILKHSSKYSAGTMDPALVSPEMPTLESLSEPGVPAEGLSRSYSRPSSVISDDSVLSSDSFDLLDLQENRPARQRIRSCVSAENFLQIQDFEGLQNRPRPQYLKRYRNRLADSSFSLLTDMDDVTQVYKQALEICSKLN
# Sequence of EPH-B4 (P54760 16-987, species assumed): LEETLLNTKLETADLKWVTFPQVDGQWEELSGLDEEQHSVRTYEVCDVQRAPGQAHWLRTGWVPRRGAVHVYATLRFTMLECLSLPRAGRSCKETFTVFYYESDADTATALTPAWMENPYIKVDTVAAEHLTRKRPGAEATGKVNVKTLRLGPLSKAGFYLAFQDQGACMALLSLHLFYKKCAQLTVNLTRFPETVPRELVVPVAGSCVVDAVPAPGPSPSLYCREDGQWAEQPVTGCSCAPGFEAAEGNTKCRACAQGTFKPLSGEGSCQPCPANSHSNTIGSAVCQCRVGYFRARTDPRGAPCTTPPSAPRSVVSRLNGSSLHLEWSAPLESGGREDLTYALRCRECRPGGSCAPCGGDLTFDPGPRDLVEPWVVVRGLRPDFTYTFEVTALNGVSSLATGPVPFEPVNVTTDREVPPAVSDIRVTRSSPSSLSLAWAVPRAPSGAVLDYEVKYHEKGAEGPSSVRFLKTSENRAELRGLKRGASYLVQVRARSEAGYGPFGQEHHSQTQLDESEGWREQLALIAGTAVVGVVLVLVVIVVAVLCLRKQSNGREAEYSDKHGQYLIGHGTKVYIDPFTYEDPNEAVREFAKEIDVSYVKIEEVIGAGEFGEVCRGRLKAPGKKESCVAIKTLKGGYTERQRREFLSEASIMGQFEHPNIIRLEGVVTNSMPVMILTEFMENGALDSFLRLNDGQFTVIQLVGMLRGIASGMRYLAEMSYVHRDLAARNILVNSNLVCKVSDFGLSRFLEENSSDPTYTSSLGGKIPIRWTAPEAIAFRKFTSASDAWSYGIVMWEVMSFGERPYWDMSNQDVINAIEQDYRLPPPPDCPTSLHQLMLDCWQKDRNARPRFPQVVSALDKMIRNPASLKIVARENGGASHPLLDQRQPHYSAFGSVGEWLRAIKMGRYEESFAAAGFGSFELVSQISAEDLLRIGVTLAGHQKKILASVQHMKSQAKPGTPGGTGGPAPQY
# Sequence of CSK (P41240 whole entry, looked up, species assumed): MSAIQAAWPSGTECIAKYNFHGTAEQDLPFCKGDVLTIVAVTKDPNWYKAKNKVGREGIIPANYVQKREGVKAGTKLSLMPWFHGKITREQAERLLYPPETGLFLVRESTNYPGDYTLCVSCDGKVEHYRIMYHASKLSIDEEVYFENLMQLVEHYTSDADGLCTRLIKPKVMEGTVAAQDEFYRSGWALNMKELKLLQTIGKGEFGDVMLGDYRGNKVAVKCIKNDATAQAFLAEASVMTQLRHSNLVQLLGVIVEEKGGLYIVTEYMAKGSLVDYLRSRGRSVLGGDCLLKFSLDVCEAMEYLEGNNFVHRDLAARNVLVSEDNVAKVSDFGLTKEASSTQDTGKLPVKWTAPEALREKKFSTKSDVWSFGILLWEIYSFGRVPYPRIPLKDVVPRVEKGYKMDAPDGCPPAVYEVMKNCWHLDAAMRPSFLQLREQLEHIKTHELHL
# Sequence of IGF-1R (P08069 31-1367, species assumed): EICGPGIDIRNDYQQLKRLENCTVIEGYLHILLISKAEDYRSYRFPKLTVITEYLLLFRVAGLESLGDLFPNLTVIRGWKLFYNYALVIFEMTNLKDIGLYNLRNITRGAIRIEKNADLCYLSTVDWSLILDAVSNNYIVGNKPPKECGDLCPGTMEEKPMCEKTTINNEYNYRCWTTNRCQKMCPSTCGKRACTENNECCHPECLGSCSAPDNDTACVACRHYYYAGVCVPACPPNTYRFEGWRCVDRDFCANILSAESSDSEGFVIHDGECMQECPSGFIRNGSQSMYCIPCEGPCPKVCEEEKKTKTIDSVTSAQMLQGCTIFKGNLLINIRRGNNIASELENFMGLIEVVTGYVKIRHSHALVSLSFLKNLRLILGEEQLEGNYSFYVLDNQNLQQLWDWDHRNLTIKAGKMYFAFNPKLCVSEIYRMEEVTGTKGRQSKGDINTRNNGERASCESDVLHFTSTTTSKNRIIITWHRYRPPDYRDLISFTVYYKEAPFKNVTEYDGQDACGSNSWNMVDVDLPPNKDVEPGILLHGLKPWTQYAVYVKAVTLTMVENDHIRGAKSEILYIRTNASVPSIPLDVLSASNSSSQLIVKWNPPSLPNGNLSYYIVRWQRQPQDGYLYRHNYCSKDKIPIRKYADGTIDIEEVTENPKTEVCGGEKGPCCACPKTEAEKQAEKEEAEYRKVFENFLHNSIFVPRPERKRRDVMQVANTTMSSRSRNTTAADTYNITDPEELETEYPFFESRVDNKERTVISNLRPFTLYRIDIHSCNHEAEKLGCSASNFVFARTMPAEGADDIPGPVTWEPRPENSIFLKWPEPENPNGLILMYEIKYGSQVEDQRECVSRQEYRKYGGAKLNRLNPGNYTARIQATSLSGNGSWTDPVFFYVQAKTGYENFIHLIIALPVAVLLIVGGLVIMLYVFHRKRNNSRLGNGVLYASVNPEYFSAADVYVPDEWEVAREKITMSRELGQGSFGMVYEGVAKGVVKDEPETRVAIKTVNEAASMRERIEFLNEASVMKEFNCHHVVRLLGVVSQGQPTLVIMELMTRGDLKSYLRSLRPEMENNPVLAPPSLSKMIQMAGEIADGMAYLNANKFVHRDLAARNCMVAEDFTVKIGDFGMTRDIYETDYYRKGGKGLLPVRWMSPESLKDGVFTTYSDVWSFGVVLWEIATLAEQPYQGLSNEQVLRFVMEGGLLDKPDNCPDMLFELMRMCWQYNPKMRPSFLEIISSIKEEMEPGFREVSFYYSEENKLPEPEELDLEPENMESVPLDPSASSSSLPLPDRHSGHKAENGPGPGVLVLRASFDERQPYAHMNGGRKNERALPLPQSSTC
# Sequence of PIM2 (Q9P1W9 whole entry, looked up, species assumed): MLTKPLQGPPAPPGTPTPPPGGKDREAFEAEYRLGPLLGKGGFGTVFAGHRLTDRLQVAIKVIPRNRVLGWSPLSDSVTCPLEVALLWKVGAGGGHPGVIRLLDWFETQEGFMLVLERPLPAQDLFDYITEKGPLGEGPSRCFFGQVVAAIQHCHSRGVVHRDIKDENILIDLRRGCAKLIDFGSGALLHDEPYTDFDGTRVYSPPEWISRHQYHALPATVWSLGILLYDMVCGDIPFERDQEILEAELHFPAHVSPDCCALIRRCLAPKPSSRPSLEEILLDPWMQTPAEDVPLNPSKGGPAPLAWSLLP
compound,measurement,setting,value
"CNc1nc(Nc2ccc(C(=O)N3CCOCC3)cc2OC)nc2[nH]cc(Cl)c12 [Compound 18, (4-((5-chloro-4-(methylamino)-7H-pyrrolo[2,3-d]pyrimidin-2-yl)amino)-3-methoxyphenyl)(morpholino)methanone]",remaining activity at 1 µM,EIF2AK3; [4],102%
same,remaining activity at 1 µM,EIF2AK3; [5],79%
same,remaining activity at 1 µM,TLK1; [4],106%
same,remaining activity at 1 µM,TLK1; [5],105%
same,remaining activity at 1 µM,PKBb; [4],118%
same,remaining activity at 1 µM,PKBb; [5],103%
same,remaining activity at 1 µM,ERK1; [4],107%
same,remaining activity at 1 µM,ERK1; [5],68%
same,remaining activity at 1 µM,ERK2; [4],94%
same,remaining activity at 1 µM,ERK2; [5],71%
same,KinomeScan value,CSNK1G2,100
same,KinomeScan value,"EGFR (L858R, T790M)",100
same,remaining activity at 1 µM,BRSK2; [4],110%
same,remaining activity at 1 µM,BRSK2; [5],98%
same,remaining activity at 1 µM,MARK2; [4],101%
same,remaining activity at 1 µM,MARK2; [5],82%
same,remaining activity at 1 µM,MST2; [4],90%
same,remaining activity at 1 µM,MST2; [5],82%
same,remaining activity at 1 µM,IGF-1R; [4],13%
same,remaining activity at 1 µM,IGF-1R; [5],9%
same,KinomeScan value,EGFR (S752-I759del),97
same,remaining activity at 1 µM,Lck; [4],97%
same,remaining activity at 1 µM,Lck; [5],111%
same,KinomeScan value,CHEK1,100
same,remaining activity at 1 µM,EPH-B4; [4],80%
same,remaining activity at 1 µM,EPH-B4; [5],86%
same,KinomeScan value,MAP4K3,100
same,remaining activity at 1 µM,PIM2; [4],95%
same,remaining activity at 1 µM,PIM2; [5],82%
same,remaining activity at 1 µM,BRSK1; [4],94%
same,remaining activity at 1 µM,BRSK1; [5],98%
same,remaining activity at 1 µM,MKK2; [4],101%
same,remaining activity at 1 µM,MKK2; [5],72%
same,KinomeScan value,[1],99
same,remaining activity at 1 µM,PRAK; [4],43%
same,remaining activity at 1 µM,PRAK; [5],6%
same,KinomeScan value,CDK11,63
same,percent remaining enzymatic activity,CSK; I10,92%
same,remaining activity at 1 µM,CSK; [6],89%
same,remaining activity at 1 µM,GSK3b; [4],82%
same,remaining activity at 1 µM,GSK3b; [5],97%
same,KinomeScan value,[2],100
same,remaining activity at 1 µM,PKD1; [4],47%
same,remaining activity at 1 µM,PKD1; [5],7%
same,KinomeScan value,PLK2,100
same,KinomeScan value,[3],90
same,KinomeScan value,EPHA5,98
same,KinomeScan value,PFTK1,82
same,percent remaining enzymatic activity,NUAK1; I10,17%
same,remaining activity at 1 µM,NUAK1; [6],75%
same,remaining activity at 1 µM,IRAK1; [4],109%
same,remaining activity at 1 µM,IRAK1; [5],92%
same,remaining activity at 1 µM,EPH-B1; [4],119%
same,remaining activity at 1 µM,EPH-B1; [5],126%
same,KinomeScan value,LOK,100
same,KinomeScan value,PIP5K1C,100
